Patent US9840478B2 (MERCK SHARP & DOHME CORP., priority 2013, dated 2017)

The compounds below were run on HIV-1 (H9IIIB strain) (assay: Cell-based HIV infection assay using a reporter (Cell-Based), MT4-GFP cells). Details: Human immunodeficiency virus 1, MT4-GFP cells infected with HIV-1 H9IIIB; 50% normal human serum; mean of at least two independent experiments; read-out: Cell-based IP.
Procedure: Cell-Based HIV Infection Assay Using a Reporter (“Cell-Based”):
MT4-GFP cells contain a stably integrated HIV long terminal repeat promoter directing the transcription of green fluorescent protein (GFP). When HIV infects the cell, GFP is produced and the cell becomes green. MT4-GFP cells (250,000 cells/ml) were bulk-infected with HIV-1 (H9IIIB strain) at low multiplicity of infection (MOI) in RPMI media, supplemented with 10% FBS for 24 hours. Cells were then washed once in RPMI plus 10% FBS and resuspended in RPMI plus 50% normal human serum (NHS). Test compounds were serial-diluted in DMSO using an ECHO liquid dispenser. A control well included a combination of three HIV drugs (an inhibitor of HIV protease, integrase strand transfer and a non-nucleoside reverse transcriptase inhibitor; triple drug). The infected MT4-GFP cells were added to a 384-well poly-D-lysine coated black plate with clear bottom in which the diluted test compounds were placed. The cells were seeded in the plate at 8,000 cells per well and the final DMSO concentration was 0.4%. Infected cells were quantified at both 24 and 48 hours post incubation using an Acumen eX3 plate reader. Viral reproductive ratio (R0) was determined using the number of infected cells at 48 hours divided by the number of infected cells at 24 hours. Percent viral growth inhibition was calculated by [1−(R−Rtripledrug)/(RDMSO−Rtripledrug)]*100. Compound potency IP or IC50 was determined with use of a 4-parameter dose response curve analysis.

SMILES | IC50 [nM]
N[C@H](C(=O)Nc1cncc(F)c1CC[C@H]1CNCCN1S(=O)(=O)c1ccccc1)[C@@H](c1ccc(Cl)cc1)c1cc(F)cc(F)c1 [Example 46, (βS)-4-chloro-β-(3,5-difluorophenyl)-N-(5-fluoro-4-{2-[(2S)-1-(phenylsulfonyl)piperazin-2-yl]ethyl}pyridin-3-yl)-L-phenylalaninamide] | 12
COC(=O)N[C@H](C(=O)Nc1cncc(F)c1CC[C@H]1CNC[C@H](C)N1S(=O)(=O)c1ccccc1)[C@@H](c1ccc(Cl)cc1)C(C)C [Example 8, Methyl ((2S,3R)-3-(4-chlorophenyl)-1-((5-fluoro-4-(2-((2S,6S)-6-methyl-1-(phenylsulfonyl)piperzin-2-yl)ethyl)pyridin-3-yl)amino)-4-methyl-1-oxopentan-2-yl)carbamate] | 9.8
COC(=O)N[C@H](C(=O)Nc1cccc(F)c1CC[C@H]1CNC[C@H](C)N1S(=O)(=O)c1ccccc1)[C@@H](c1cccc(Cl)c1)C(C)C [Example 209, (βR)-3-chloro-N-(3-fluoro-2-{2-[(2S,6S)-6-methyl-1-(phenylsulfonyl)piperazin-2-yl]ethyl}phenyl)-Nα-(methoxycarbonyl)-β-(1-methylethyl)-L-phenylalaninamide] | 77
C[C@@H]1CNC[C@H](CCc2c(F)cccc2NC(=O)[C@@H](N)C2(c3ccc(F)c(F)c3)CCOCC2)N1S(=O)(=O)c1ccccc1 [Example 291, (2S)-2-amino-2-[4-(3,4-difluorophenyl)tetrahydro-2H-pyran-4-yl]-N-(3-fluoro-2-{2-[(2S,6R)-6-methyl-1-(phenylsulfonyl)piperazin-2-yl]ethyl}phenyl)ethanamide] | 100
O=C(C[C@@H](c1ccc(F)cc1)c1cc(F)cc(F)c1)Nc1cncc(F)c1CC[C@H]1CNCCN1S(=O)(=O)c1ccc(OC(F)(F)F)cc1 [Example 314, (3S)-3-(3,5-difluorophenyl)-3-(4-fluorophenyl)-N-(5-fluoro-4-{2-[(2S)-1-{[4-(trifluoromethoxy)phenyl]sulfonyl}piperazin-2-yl]ethyl}pyridin-3-yl)propanamide] | 9.2
C[C@@H]1CNC[C@H](CCc2c(F)cccc2NC(=O)[C@@H](N)C(c2cccc(F)c2)c2cccc(F)c2)N1S(=O)(=O)c1ccccc1 [Example 133, 3-fluoro-N-(3-fluoro-2-{2-[(2S,6R)-6-methyl-1-(phenylsulfonyl)piperazin-2-yl]ethyl}phenyl)-β-(3-fluorophenyl)-L-phenylalaninamide] | 55
COC(=O)N[C@H](C(=O)Nc1cccc(F)c1CC[C@H]1CNC[C@H](C)N1S(C)(=O)=O)[C@@H](c1ccc(F)cc1)c1cc(F)cc(F)c1 [Example 99, (βS)-β-(3,5-difluorophenyl)-4-fluoro-N-(3-fluoro-2-{2-[(2S,6S)-6-methyl-1-(methylsulfonyl)piperazin-2-yl]ethyl}phenyl)-Nα-(methoxycarbonyl)-L-phenylalaninamide] | 16
C[C@H]1CNC[C@H](CCc2c(F)cccc2NC(=O)[C@@H](N)[C@@H](c2ccc(F)cc2)c2cc(F)cc(F)c2)N1S(C)(=O)=O [Example 258, (βS)-β-(3,5-difluorophenyl)-4-fluoro-N-(3-fluoro-2-{2-[(2S,6S)-6-methyl-1-(methylsulfonyl)piperazin-2-yl]ethyl}phenyl)-L-phenylalaninamide] | 31
COc1ccc([C@H](c2ccc(Cl)cc2)[C@H](N)C(=O)Nc2cccc(F)c2CC[C@H]2CNC[C@H](C)N2S(=O)(=O)c2ccc(OC(F)(F)F)cc2)cn1 [Example 188, (βS)-4-chloro-N-(3-fluoro-2-{2-[(2S,6S)-6-methyl-1-{[4-(trifluoromethoxy)phenyl]sulfonyl}piperazin-2-yl]ethyl}phenyl)-β-(6-methoxypyridin-3-yl)-L-phenylalaninamide] | 55
CC1(C)CC([C@H](c2ccc(Cl)cc2)[C@H](N)C(=O)Nc2cccc(F)c2CC[C@H]2CNCCN2S(=O)(=O)c2ccccc2)CC(C)(C)O1 [Example 75, (βR)-4-chloro-N-(3-fluoro-2-{2-[(2S)-1-(phenylsulfonyl)piperazin-2-yl]ethyl}phenyl)-β-(2,2,6,6-tetramethyltetrahydro-2H-pyran-4-yl)-L-phenylalaninamide] | 150
O=C(C[C@@H](c1ccc(F)cc1)c1cc(F)cc(F)c1)Nc1cncc(F)c1CC[C@H]1CNCCN1S(=O)(=O)c1cnc2ccccc2c1 [Example 321, (3S)-3-(3,5-difluorophenyl)-3-(4-fluorophenyl)-N-(5-fluoro-4-{2-[(2S)-1-(quinolin-3-ylsulfonyl)piperazin-2-yl]ethyl}pyridin-3-yl)propanamide] | 29
N[C@H](C(=O)Nc1cccc(F)c1CC[C@H]1CNCCN1S(=O)(=O)c1ccccc1)[C@@H](c1ccc(Cl)cc1)c1cc(F)cc(F)c1 [Example 43, (βS)-4-chloro-β-(3,5-difluorophenyl)-N-(3-fluoro-2-{2-[(2S)-1-(phenylsulfonyl)piperazin-2-yl]ethyl}phenyl)-L-phenylalaninamide] | 12
C[C@H]1CNC[C@H](CCc2c(F)cccc2NC(=O)[C@@H](N)[C@@H](c2ccc(F)cc2)C2CCOCC2)N1S(=O)(=O)c1ccccc1 [Example 102, (βR)-4-fluoro-N-(3-fluoro-2-{2-[(2S,6S)-6-methyl-1-(phenylsulfonyl)piperazin-2-yl]ethyl}phenyl)-β-(tetrahydro-2H-pyran-4-yl)-L-phenylalaninamide] | 19
CC[C@H]1CNC[C@H](CCc2c(F)cccc2NC(=O)[C@@H](N)[C@@H](c2ccc(Cl)cc2)C2CCOCC2)N1S(C)(=O)=O [Example 224, (βR)-4-chloro-N-(2-{2-[(2S,6S)-6-ethyl-1-(methylsulfonyl)piperazin-2-yl]ethyl}-3-fluorophenyl)-β-(tetrahydro-2H-pyran-4-yl)-L-phenylalaninamide] | 90
CS(=O)(=O)c1ccc(S(=O)(=O)N2CCNC[C@@H]2CCc2c(F)cncc2NC(=O)C[C@@H](c2ccc(F)cc2)c2cc(F)cc(F)c2)cc1 [Example 313, (3S)-3-(3,5-difluorophenyl)-N-(5-fluoro-4-{2-[(2S)-1-{[4-(methylsulfonyl)phenyl]sulfonyl}piperazin-2-yl]ethyl}pyridin-3-yl)-3-(4-fluorophenyl)propanamide] | 48
COC(=O)N[C@H](C(=O)Nc1cccc(F)c1CC[C@H]1CNC[C@@H](C)N1S(C)(=O)=O)[C@H](c1cccc(F)c1)c1cccc(Cl)c1 [Example 173, (βR)-3-chloro-N-(3-fluoro-2-{2-[(2S,6R)-6-methyl-1-(methylsulfonyl)piperazin-2-yl]ethyl}phenyl)-β-(3-fluorophenyl)-Nα-(methoxycarbonyl)-L-phenylalaninamide] | 90
COc1ccc(S(=O)(=O)N2[C@@H](CCc3c(F)cccc3NC(=O)[C@@H](N)[C@@H](c3ccc(F)cc3)c3cc(F)cc(F)c3)CNC[C@H]2C)cc1 [Example 16, (βS)-β-(3,5-difluorophenyl)-4-fluoro-N-[3-fluoro-2-(2-{(2S,6R)-1-[(4-methoxyphenyl)sulfonyl]-6-methylpiperazin-2-yl}ethyl)phenyl]-L-phenylalaninamide] | 5.4
O=C(C[C@@H](c1ccc(F)cc1)c1cc(F)cc(F)c1)Nc1cncc(F)c1CC[C@H]1CNCCN1C(=O)c1ccc(OC(F)(F)F)cc1 [Example 344, (3S)-3-(3,5-difluorophenyl)-3-(4-fluorophenyl)-N-(5-fluoro-4-{2-[(2S)-1-{[4-(trifluoromethoxy)phenyl]carbonyl}piperazin-2-yl]ethyl}pyridin-3-yl)propanamide] | 1800
CC(C)[C@H](c1ccc(Cl)cc1)[C@H](N)C(=O)Nc1cccc(F)c1CC[C@H]1CNC[C@H](C)N1S(=O)(=O)c1ccc(OC(F)(F)F)cc1 [Example 140, (βR)-4-chloro-N-(3-fluoro-2-{2-[(2S,6S)-6-methyl-1-{[4-(trifluoromethoxy)phenyl]sulfonyl}piperazin-2-yl]ethyl}phenyl)-β-(1-methylethyl)-L-phenylalaninamide] | 250
C[C@H]1CNC[C@H](CCc2c(F)cccc2NC(=O)[C@@H](N)C(c2cccc(F)c2)c2cccc(F)c2)N1S(C)(=O)=O [Example 170, 3-fluoro-N-(3-fluoro-2-{2-[(2S,6S)-6-methyl-1-(methylsulfonyl)piperazin-2-yl]ethyl}phenyl)-β-(3-fluorophenyl)-L-phenylalaninamide] | 60
COC(=O)N[C@H](C(=O)Nc1cccc(F)c1CC[C@H]1CNCCN1S(=O)(=O)c1ccccc1)[C@@H](c1ccc(Cl)cc1)c1cc(F)cc(F)c1 [Example 59, (βS)-4-chloro-β-(3,5-difluorophenyl)-N-(3-fluoro-2-{2-[(2S)-1-(phenylsulfonyl)piperazin-2-yl]ethyl}phenyl)-Nα-(methoxycarbonyl)-L-phenylalaninamide] | 29
COc1ccccc1S(=O)(=O)N1[C@@H](CCc2c(F)cccc2NC(=O)[C@@H](N)[C@@H](c2ccc(F)cc2)c2cc(F)cc(F)c2)CNC[C@@H]1C [Example 238, (βS)-β-(3,5-difluorophenyl)-4-fluoro-N-[3-fluoro-2-(2-{(2S,6S)-1-[(2-methoxyphenyl)sulfonyl]-6-methylpiperazin-2-yl}ethyl)phenyl]-L-phenylalaninamide] | 110
